A short description of data set [1]: Kinetic solubility in simulated intestinal fluid (SIF). The following applies: pH 6.8.
Data set [2] is described as follows: in vitro. The following applies: male, mouse, microsomes.
Data set [3] in a line: physchem. The note with it: pH 7.4.
For data set [4] the following is noted: buffer.
The nature of data set [5]: in vitro. The following applies: human, microsomes.
A short description of data set [6]: physchem. The note with it: water, thermodynamic from solid.
Data set [7] concerns the target AD tau (Homo sapiens, UniProt P10636). The data set is classed as cell-based.

Converted amounts (≈) assume the structure as drawn.

AD tau, sequence (P10636 623-695 limits assumed): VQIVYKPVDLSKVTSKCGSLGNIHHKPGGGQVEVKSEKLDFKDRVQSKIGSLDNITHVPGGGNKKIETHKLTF

In turn, `O=C(O)Cc1ccccc1Nc1c(Cl)cccc1Cl` [diclofenac] had a solubility (kinetic) at 2 h in data set [1] of about 300 µM (≈ 88.8 µg/mL).

`O=C1c2c(O)cc(O)cc2O[C@H](c2cc(O)c(O)c(O)c2)[C@H]1O` [DHM, dihydromyricetin] came in with a half-life at 1 µM in data set [2] of 1.57 h. Further, the logD at 1 h in data set [3] is 0.63. Besides, the “Fraction remaining dissolved in aqueous solution after centrifugation” value in data set [4] is given as “about 20%”. In data set [5], this compound gave a half-life at 1 µM of 3.38 h and an amount remaining at 1 h, 1 µM of about 100%. Also, the solubility (thermodynamic) in data set [6] came out at 650 µg/mL (≈ 2030 µM).

As to `[Ca+2].[OH-].[OH-]` [Ca(OH)2, calcium hydroxide], the “Inhibitory activity of counterions toward tau seeding” value in data set [7] is “neither TEA nor Ca(OH)2 exhibited inhibitory activity”.

Source of the values: article PMC11756387, “Improving the solubility of pseudo-hydrophobic chemicals through co-crystal formulation” (PNAS Nexus, 2025).
